Source: patent publication US7973162B2, “Modulators of muscarinic receptors” (Vertex Pharmaceuticals Incorporated, priority 2007, dated 2011)
pEC50: −log10 of the molar value.

Key:
Format in all cases: cell-based
M4 muscarinic receptor = biological target: T1, M4 muscarinic receptor (Homo sapiens, UniProt P08173); assay: Functional mobilization of intracellular calcium (FLIPR), M4-CHO cells; details: for Emax: 100% efficacy = maximum response obtained with the Carbachol control; for pEC50: CHO cells expressing M4, calcium mobilization
T1 construct: expressed in transfected cells; host or cells: CHO (M4-CHO)
T1 sequence (P08173 1-479): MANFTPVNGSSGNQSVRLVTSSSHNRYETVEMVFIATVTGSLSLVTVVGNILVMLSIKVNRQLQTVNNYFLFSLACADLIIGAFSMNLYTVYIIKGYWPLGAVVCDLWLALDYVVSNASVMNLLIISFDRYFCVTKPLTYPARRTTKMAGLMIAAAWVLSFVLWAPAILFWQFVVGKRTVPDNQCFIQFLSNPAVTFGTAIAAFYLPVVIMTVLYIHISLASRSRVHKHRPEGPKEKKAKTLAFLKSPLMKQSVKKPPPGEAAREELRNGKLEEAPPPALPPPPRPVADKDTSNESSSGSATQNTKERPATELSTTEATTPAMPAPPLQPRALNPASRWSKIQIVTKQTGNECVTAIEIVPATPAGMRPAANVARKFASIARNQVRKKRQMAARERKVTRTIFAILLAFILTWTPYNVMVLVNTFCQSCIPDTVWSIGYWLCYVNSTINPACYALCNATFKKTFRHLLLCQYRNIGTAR
Experimental: (§1) Functional Mobilization of Intracellular Calcium to Determine Muscarinic Receptor Activity:
(§2) CHO cells expressing muscarinic receptors (M1 to M5) are grown as monolayers in tissue culture flasks at 37° C. in a humidified atmosphere containing 5% CO2 and passaged every 3-5 days. The growth media is Dulbecco's modified eagles medium (DMEM, Gibco Cat# 12430-054), containing 25 mM Hepes and supplemented with Fetal Bovine Serum (Hyclone, cat #SH30071.03), 0.1 mM of MEM non-essential amino acids (GIBCO, Cat #11140-050), 1 mM MEM Sodium Pyruvate (GIBCO Cat #11360-070) and 100 units/ml of Penicillin G and 100 μg/ml of Streptomycin (GIBCO Cat #15140-122). The recombinant muscarinic receptor cell lines are grown under antibiotic pressure with media containing 25 μg/ml zeocin and 500 μg/ml G418 (M1-CHO), 4 μg/ml puromycin, 50 μg/ml zeocin and 2.5 μg/ml blasticidin (M2 and M4-CHO) or 50 μg/ml zeocin and 4 μg/ml puromycin (M3 and M5-CHO).
(§3) Cells are harvested at 80-90% confluence using Versene (GIBCO Cat #15040-066), collected by centrifugation and seeded 18-24 hrs prior to running the calcium assay at a density of 5,000-10,000 cells/well in […], clear-bottomed 384-well plates (BD Biocoat, poly-D-lysine, Cat#356663). The day of the experiment, the cells are washed with a plate washer (Bioteck Instruments, ELX 405) using bath1 buffer (140-mM NaCl, 4.5-mM KCl, 2-mM CaCl2, 1-mM MgCl2, 10-mM Hepes-Na, 10-mM Glucose, pH 7.4, with NaOH) containing 1 mM Probenecid. Next, the calcium dye Fluo-3 (25 μl/well of Fluo-3 AM at 4 μM, Molecular Probes F-1241, in Bath 1 buffer containing 1 mM Probenecid) is added to the 25 μl of Bath 1 remaining in each well after the plate wash and the dye is loaded at 37° C. in the tissue culture incubator for 60-90 min. The fluorescent dye is removed using the plate washer with Bath 1 containing 1 mM Probenecid, leaving 25 μl/well of this solution after the wash. Alternatively, cells can be loaded with the calcium indicator from Molecular Devices (Calcium 3 Assay Reagents, Cat #R7181) adding 5 μl of a 5× solution dye in Bath 1 containing 1 mM Probenecid (10 ml per dye flask cat #R7182 to generate a solution 20×) to 20 μl of the same buffer. After loading for 60 min, the experiment can be run without having to remove the dye.
(§4) Compounds are prepared at a 2× fold concentration in a 96-well plate (round bottom, Costar Corning cat #3656), by reconstituting the pre-spotted compounds in bath 1 containing 1 mM probenecid. The final concentration DMSO is 0.5%, and the amount of DMSO is normalized across the assay plate. To determine an agonist action of the compounds on muscarinic receptors, the reconstituted compounds are added (25 μl compound/well) to the cell assay plate (containing 25 μl/well) using the multi-channel robotic system of the FLIPR 3 Instrument (Molecular Devices, Sunnyvale, Calif.). To determine a functional inhibitory action of the compounds on muscarinic receptors, the reconstituted compounds are added (25 μl compound/well) to the assay plate and pre-incubated for 15 min prior to adding 25 μl of Carbachol at 3× the EC80 for each muscarinic subtype. Alternatively, the compounds can be co-applied simultaneously with the agonist. In both assay modes, the fluorescence is recorded for 60 sec (excitation wavelength is […] and emission wavelength 540 nm) using the FLIPR 3 instrument.
(§5) The potency, efficacy and selectivity of the muscarinic compounds were evaluated by screening the compound activity across the whole family (M1 to M5 cells). Compounds were also screened for activity on other proteins such as other GPCRs and ion channels to determine selectivity on M4 receptors.
(§6) Examples of activities and efficacies of the muscarinic compounds of formulae (I, Ia, and Ib) on modulating M1 and M4 receptors are shown below in Table 3. […]

M3 muscarinic receptor = biological target: T2, M3 muscarinic receptor (Homo sapiens, UniProt P20309); assay: Functional mobilization of intracellular calcium (FLIPR), M3-CHO cells; details: for Emax: 100% efficacy = maximum response obtained with the Carbachol control; for pEC50: CHO cells expressing M3, calcium mobilization
T2 construct: expressed in transfected cells; host or cells: CHO (M3-CHO)
T2 sequence (P20309 whole entry): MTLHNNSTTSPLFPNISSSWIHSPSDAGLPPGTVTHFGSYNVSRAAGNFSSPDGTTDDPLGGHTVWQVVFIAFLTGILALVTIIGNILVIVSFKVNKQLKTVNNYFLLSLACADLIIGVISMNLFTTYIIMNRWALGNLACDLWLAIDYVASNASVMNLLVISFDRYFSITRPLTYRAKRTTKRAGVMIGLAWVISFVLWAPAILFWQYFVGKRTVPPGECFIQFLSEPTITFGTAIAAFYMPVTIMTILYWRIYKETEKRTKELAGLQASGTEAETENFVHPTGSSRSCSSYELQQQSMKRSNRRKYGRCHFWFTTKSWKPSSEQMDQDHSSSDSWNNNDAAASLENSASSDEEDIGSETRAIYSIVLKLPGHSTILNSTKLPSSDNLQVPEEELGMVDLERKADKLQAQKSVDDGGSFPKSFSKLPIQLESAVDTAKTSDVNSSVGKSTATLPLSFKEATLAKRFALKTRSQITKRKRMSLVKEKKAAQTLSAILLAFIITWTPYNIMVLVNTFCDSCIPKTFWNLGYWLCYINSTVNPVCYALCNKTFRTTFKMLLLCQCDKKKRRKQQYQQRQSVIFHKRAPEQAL
Experimental: as §1, §2, §3, §4, §5, §6

M1 muscarinic receptor = biological target: T3, M1 muscarinic receptor (Homo sapiens, UniProt P11229); assay: Functional mobilization of intracellular calcium (FLIPR), M1-CHO cells; details: for Emax: 100% efficacy = maximum response obtained with the Carbachol control; for pEC50: CHO cells expressing M1, calcium mobilization
T3 construct: expressed in transfected cells; host or cells: CHO (M1-CHO)
T3 sequence (P11229 1-460): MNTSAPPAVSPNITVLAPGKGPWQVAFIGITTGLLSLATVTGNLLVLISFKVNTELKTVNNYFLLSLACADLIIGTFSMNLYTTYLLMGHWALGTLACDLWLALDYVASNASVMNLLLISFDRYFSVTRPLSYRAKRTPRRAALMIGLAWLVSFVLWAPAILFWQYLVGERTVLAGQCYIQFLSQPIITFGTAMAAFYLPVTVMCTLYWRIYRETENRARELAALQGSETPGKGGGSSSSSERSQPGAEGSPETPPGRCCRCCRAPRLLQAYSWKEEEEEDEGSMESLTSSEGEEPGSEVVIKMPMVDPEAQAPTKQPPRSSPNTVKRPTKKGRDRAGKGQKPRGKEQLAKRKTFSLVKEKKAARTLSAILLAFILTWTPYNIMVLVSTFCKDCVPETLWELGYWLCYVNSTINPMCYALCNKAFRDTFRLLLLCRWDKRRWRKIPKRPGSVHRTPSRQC
Experimental: as §1, §2, §3, §4, §5, §6

M2 muscarinic receptor = biological target: T4, M2 muscarinic receptor (Homo sapiens, UniProt P08172); assay: Functional mobilization of intracellular calcium (FLIPR), M2-CHO cells; details: for Emax: 100% efficacy = maximum response obtained with the Carbachol control; for pEC50: CHO cells expressing M2, calcium mobilization
T4 construct: expressed in transfected cells; host or cells: CHO (M2-CHO)
T4 sequence (P08172 1-466): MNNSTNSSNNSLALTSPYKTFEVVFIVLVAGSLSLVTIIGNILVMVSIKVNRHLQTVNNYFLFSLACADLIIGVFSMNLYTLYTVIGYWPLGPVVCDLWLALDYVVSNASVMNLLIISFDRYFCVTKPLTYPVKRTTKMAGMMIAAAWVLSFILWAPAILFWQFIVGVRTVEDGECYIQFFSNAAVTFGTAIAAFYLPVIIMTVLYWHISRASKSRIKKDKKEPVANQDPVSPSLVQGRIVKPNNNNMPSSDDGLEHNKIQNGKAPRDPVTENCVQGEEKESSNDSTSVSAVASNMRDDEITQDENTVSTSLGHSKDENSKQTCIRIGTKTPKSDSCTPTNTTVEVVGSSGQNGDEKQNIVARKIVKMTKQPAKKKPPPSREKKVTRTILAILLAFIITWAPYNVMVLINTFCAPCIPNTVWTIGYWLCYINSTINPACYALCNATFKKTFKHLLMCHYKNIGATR
Experimental: as §1, §2, §3, §4, §5, §6

SMILES | Emax (M4 muscarinic receptor) | pEC50 (M4 muscarinic receptor) | Emax (M3 muscarinic receptor) | pEC50 (M3 muscarinic receptor) | Emax (M1 muscarinic receptor) | pEC50 (M1 muscarinic receptor) | Emax (M2 muscarinic receptor) | pEC50 (M2 muscarinic receptor)
CCOC(=O)N1CCC(N2CCC3(CC2)C[C@H]2CC(=O)N(CCOC)[C@H]2c2ccccc23)CC1 [Compound 1] | 25 to 100% | > 5.70 | < 25% | < 5.30 | 25 to 100% | > 5.70 | 25 to 100% | > 5.70
O=C1C[C@@H]2[C@H](N1)c1ccccc1C21CCN(C2C[C@H]3CC[C@@H]2C3)CC1 (stereo partly drawn) [Compound 32] | 25 to 100% | > 5.70 | < 25% | < 5.30 | 25 to 100% | 5.30 to 5.70 | 25 to 100% | 5.30 to 5.70
O=C1CC2CC3(CCN(C4CCCCC4)CC3)c3ccccc3C2O1 (stereo not drawn) [Compound 21] | 25 to 100% | > 5.70 | < 25% | < 5.30 | 25 to 100% | > 5.70 | 25 to 100% | < 5.30
